Reference: US20230271938A1, “BENZIMIDAZOLES FOR USE IN THE TREATMENT OF CANCER AND INFLAMMATORY DISEASES” (Capella Therapeutics, Inc., priority 2015, published 2023)

How the values were obtained:
[1] = system: H1975 human NSCLC adenocarcinoma cells (drug-resistant mutant ERBB1, T790M in-cis with L858R); assay: Cell proliferation assay, H1975; assay type: cell-based
Protocol: The biological activity of a test compound was determined using cell proliferation assays. The activity against wild-type ERBB 1 was determined using A431 human epidermoid carcinoma cells (ATCC) and human epidermal keratinocytes, neonatal, or HEKn cells (ATCC).
A431 cells were grown in DMEM (Invitrogen) supplemented with 10% FBS (Lonza), 1% penicillin-streptomycin, and 2 mM glutamine (Invitrogen). HEKn cells were grown in EPILIFE® (Invitrogen) supplemented with HKGS (Invitrogen). HCC827 and H1975 were cultured in RPMI1640 supplemented with 10% FBS (Lonza), 1% penicillin-streptomycin, and 2 mM glutamine (Invitrogen). Cells were maintained and propagated at 37° C. and 5% CO2 in a humidified cell culture incubator. Aliquots of cells from early passages were preserved for liquid nitrogen storage. Frozen vials of cells were thawed at 37° C. water bath. Cells were spun to remove freezing medium. The newly revived frozen cells were adapted in culture for 10 days before used for compound testing. Cells used in the assay were less than 20 subculture passages or 3 months in culture.
The test compounds were dissolved in dimethylsulfoxide (DMSO) and stored at -20° C. before testing. […] The cells were placed in a culture incubator overnight. Next day, test compounds in DMSO were added to the cells and placed back in the culture incubator for 72 hrs. In the meantime, the cell numbers at time zero of the compound treatment (T0) was measured by ENERCOUNT® (Codex BioSolutions). At the end of the compound treatment, the cell numbers were again measured by EnerCount as T72 values. The untreated controls (Ctrl) were cell numbers recorded from the 0.1% DMSO treatment. The percent growth inhibition by the test compound was calculated by the formula: (1- (T72-T0)/(Ctrl-T0)) x 100.
The results are summarized in Tables 1 and 2, wherein A represents a value no greater than 500 nM, B represents a value greater than 500 nM but no greater than 1 µM, C represents a value greater than 1 µM but no greater than 5 µM, and D represents a value greater than 5 µM; and wherein A′ represents a ratio of greater than 10, B′ represents a ratio of no greater than 10 but no less than 5, C′ represents a ratio of no greater than 5 but no less than 2, and D′ represents a ratio of no greater than 2.

[2] = target: BTK (Homo sapiens, UniProt Q06187); assay: Inhibition of BTK kinase; assay type: biochemical; settings: 1% DMSO
Text: (§1) The Z′-LYTE® biochemical assay is a fluorescence-based, coupled-enzyme assay based on the differential sensitivity of phosphorylated and non-phosphorylated peptides to proteolytic cleavage. A peptide substrate for a kinase is labeled with two fluorophores, one at each end, to form a FRET pair.
(§2) In the primary reaction, the kinase transfers the gamma-phosphate of ATP to a single tyrosine, serine, or threonine residue in the synthetic FRET-peptide substrate. In the secondary reaction, a site-specific protease recognizes and cleaves non-phosphorylated FRET-peptides. Cleavage disrupts FRET between the donor and acceptor fluorophores on the FRET-peptide, whereas uncleaved, phosphorylated FRET-peptides maintain FRET. An inhibitory activity of a compound is thus determined from its effect on the cleavage of the synthetic FRET-peptide substrate.
(§3) Inhibition of BMX, BTK, ITK, and TXK kinases by a test compound is determined in 50 mM HEPES, pH 7.5, 0.01% BRIJ-35, 10 mM MgCl2, and 1 mM EGTA in the presence of 1% DMSO by volume.
(§4) Inhibition of BMX, BTK, PIK3C-D, ITK, TEC, and TXK kinases by compound A2 was measured using one of the assays described in Examples 2A and 3A.

[3] = target: PIK3C-D (Homo sapiens, UniProt O00329); assay: Inhibition of PIK3C-D kinase; assay type: biochemical
Text: as §1, §2
Binding of an ALEXA FLUOR® conjugate or “tracer” to a kinase is detected by addition of a Eu-labeled anti-tag antibody. […] An inhibitory activity of a compound is thus determined from the extent of the FRET signal loss. Inhibition of ITK and TEC kinases by a test compound is determined in the presence of 1% DMSO.
as §4

[4] = target: T1, TXK (Homo sapiens, UniProt P42681); assay: Inhibition of TXK kinase; assay type: biochemical; settings: 1% DMSO
T1 sequence (P42681 1-527): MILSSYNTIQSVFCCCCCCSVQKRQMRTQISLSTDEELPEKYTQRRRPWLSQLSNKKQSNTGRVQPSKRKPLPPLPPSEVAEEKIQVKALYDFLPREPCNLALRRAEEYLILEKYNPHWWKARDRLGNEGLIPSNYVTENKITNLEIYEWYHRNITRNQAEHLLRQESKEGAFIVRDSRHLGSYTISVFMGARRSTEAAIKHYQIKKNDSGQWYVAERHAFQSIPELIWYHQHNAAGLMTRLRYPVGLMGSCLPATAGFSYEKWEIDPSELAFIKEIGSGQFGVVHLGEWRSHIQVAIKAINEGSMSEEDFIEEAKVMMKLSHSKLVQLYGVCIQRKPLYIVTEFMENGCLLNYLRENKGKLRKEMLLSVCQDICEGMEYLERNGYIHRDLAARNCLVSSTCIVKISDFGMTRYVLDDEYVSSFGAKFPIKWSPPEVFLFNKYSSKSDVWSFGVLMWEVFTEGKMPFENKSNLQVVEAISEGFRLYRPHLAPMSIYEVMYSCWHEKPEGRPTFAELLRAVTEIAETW
Text: as §1, §2, §3, §4

BTK, sequence (Q06187 whole entry): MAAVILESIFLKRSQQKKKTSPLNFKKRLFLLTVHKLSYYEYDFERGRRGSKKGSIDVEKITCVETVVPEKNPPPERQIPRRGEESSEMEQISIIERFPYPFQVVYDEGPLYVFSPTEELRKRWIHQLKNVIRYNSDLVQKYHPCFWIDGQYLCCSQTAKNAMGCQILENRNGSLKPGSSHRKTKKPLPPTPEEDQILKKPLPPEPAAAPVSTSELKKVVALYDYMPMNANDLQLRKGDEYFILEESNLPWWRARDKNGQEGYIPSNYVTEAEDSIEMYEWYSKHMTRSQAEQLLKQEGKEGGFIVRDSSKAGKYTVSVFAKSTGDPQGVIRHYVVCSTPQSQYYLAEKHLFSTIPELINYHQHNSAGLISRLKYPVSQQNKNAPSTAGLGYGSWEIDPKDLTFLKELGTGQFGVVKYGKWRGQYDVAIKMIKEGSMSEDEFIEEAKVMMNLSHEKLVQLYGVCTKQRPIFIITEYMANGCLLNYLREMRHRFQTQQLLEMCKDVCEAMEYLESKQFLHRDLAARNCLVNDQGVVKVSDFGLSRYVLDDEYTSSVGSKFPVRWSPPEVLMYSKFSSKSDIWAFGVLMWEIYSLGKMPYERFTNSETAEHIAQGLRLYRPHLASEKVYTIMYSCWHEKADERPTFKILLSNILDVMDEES
PIK3C-D, sequence (O00329 whole entry): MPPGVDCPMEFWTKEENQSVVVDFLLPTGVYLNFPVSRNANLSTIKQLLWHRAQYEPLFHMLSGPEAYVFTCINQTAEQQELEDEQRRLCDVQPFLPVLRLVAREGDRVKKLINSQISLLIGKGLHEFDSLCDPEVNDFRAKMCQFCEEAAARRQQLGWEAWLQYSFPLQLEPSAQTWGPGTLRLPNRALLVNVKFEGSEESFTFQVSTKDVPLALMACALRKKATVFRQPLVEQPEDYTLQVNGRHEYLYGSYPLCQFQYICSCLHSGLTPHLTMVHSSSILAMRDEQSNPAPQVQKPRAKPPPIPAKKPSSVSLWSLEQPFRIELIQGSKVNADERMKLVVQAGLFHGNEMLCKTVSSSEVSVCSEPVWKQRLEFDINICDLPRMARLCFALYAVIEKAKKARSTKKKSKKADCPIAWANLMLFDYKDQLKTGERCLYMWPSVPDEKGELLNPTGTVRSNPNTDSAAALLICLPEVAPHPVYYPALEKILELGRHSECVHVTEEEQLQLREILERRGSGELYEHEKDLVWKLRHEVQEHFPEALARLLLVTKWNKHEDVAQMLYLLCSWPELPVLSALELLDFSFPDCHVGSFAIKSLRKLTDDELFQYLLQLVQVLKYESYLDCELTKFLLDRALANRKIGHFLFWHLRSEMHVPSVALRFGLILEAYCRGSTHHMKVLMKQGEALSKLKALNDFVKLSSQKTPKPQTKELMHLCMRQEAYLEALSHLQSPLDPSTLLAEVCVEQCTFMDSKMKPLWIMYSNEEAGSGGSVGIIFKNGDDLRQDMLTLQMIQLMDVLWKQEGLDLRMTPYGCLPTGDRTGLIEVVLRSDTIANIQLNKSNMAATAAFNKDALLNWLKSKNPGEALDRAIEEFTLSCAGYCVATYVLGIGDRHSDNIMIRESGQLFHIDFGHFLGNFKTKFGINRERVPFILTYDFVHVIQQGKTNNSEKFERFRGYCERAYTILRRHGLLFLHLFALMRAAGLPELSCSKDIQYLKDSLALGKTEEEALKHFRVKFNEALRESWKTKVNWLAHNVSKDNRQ
PIK3C-D, sequence (P27986 whole entry partner): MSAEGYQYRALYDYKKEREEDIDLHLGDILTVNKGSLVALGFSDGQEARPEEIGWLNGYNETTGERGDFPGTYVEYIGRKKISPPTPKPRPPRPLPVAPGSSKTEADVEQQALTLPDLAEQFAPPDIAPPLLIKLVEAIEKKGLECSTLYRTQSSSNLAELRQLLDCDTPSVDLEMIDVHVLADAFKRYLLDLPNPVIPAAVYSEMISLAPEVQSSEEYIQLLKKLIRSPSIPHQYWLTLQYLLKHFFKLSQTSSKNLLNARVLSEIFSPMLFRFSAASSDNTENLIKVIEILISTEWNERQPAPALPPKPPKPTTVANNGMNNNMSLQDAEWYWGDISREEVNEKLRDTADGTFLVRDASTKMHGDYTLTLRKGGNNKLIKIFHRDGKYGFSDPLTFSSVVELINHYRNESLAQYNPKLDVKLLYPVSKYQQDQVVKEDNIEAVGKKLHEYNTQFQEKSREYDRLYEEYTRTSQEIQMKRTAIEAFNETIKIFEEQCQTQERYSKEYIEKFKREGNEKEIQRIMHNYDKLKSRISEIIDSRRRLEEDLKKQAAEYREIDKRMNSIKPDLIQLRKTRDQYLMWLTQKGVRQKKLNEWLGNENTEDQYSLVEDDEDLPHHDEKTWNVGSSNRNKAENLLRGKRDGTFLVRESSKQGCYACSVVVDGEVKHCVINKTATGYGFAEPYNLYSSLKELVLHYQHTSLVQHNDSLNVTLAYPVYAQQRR

GI50 ([1]; Homo sapiens, NCI-H1975, H1975 cells, 72 hrs): < 0.5 µM
IC50 [2]: ≤ 0.01 µM
IC50 [3]: ≤ 0.01 µM
IC50 [4]: ≤ 0.01 µM
SMILES: C=CC(=O)N1CCCC[C@@H](n2c(NC(=O)c3ccnc(C)c3)nc3cccc(OC4CCN(C(C)=O)CC4)c32)C1 [Compound A2, (R)-N-(7-((1-acetylpiperidin-4-yl)oxy)-1-(1-acryloylazepan-3-yl)-1H-benzo[d]imidazol-2-yl)-2-methylisonicotinamide]
Ratio (Wild-type ERBB1/Mutant ERBB1) A431/H1975 ([1]; GI50 ratio A431/H1975): B′ (B′ represents a ratio of no greater than 10 but no less than 5)
Ratio (Wild-type ERBB1/Mutant ERBB1) HEKn/H1975 ([1]; GI50 ratio HEKn/H1975): A′ (A′ represents a ratio of greater than 10)
Inhibition [2]: A (A represents a value no greater than 10 nM or no less than 90% inhibition)
Inhibition [3]: A (A represents a value no greater than 10 nM or no less than 90% inhibition)
Inhibition [4]: A (A represents a value no greater than 10 nM or no less than 90% inhibition)
